We go through 15 substances from patent publication US20150038435A1, “N-TERMINALLY MODIFIED OLIGOPEPTIDES AND USES THEREOF” (Novo Nordisk A/S, priority 2012, published 2015).

Data set [1] in a line: Hydrophobicity: retention time during reverse phase HPLC. Conditions: Acquity CSH C18; pH 7.2 buffer/CH3CN gradient; 40° C. The format is physicochemical. The source says:
The retention time (RT) during reverse phase HPLC was taken as a measure of hydrophobicity of an N-terminally modified peptide or oligopeptide of the invention, where the connection is: The longer the RT, the more hydrophobic N-terminally modified peptide or oligopeptide. The following running conditions were applied during HPLC analysis:
Buffer B: 70% (v/v) aq. CH3CN

In another data set the test system is Trypsin. As to the kind of experiment: Inhibition of enzymatic degradation of a model GLP-1 (FRET substrate) by trypsin. The format is biochemical. Conditions: compound 0.1 mM, buffer containing 8% DMSO. The method in brief: (§1)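 Initial-rate slopes of fluorescence rise (320 nm ex, 405 nm em), fitted over the linear early phase and averaged from duplicates, were plotted against inhibitor concentration and fitted logistically to give EC50. Reactions ran at 37° C in Dulbecco's PBS, with MCA/DNP GLP-1 FRET substrate added as 10 μl of 100 μM stock.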

In a further data set the test system is Chymotrypsin. The data set can be described thus: Inhibition of enzymatic degradation of a model GLP-1 (FRET substrate) by chymotrypsin. The following applies: compound 0.1 mM, buffer containing 8% DMSO. The format is biochemical. The method in brief:
as §1

*: point of attachment. Lauroyl = CCCCCCCCCCCC(=O)*

As to “N-dodecanoyl-Ala-Asp-Pro-Tyr-OH (Lauroyl-ADPY-OH; SMILES CCCCCCCCCCCC(=O)N[C@@H](C)C(=O)N[C@@H](CC(=O)O)C(=O)N1CCC[C@H]1C(=O)N[C@@H](Cc1ccc(O)cc1)C(=O)O) [Example 75]”, the “RT (retention time during reverse phase HPLC as a measure of hydrophobicity)” value (“RT” below) in data set [1] turned out to be 4.2 min. Also, the “Slope of the initial increase in fluorescence obtained during incubation with 0.001 mg/ml Trypsin” value in the data set with Trypsin was 1.81. Moreover, the “Slope of the initial increase in fluorescence obtained during incubation with 0.001 mg/ml Chymotrypsin” value with Chymotrypsin came to 1.77.

Turning to “N-dodecanoyl-Ala-Gln-Pro-Tyr-OH (Lauroyl-AQPY-OH; SMILES CCCCCCCCCCCC(=O)N[C@@H](C)C(=O)N[C@@H](CCC(N)=O)C(=O)N1CCC[C@H]1C(=O)N[C@@H](Cc1ccc(O)cc1)C(=O)O) [Example 76]”, in data set [1], the “RT” value was 5.26 min. In the data set on Trypsin, the “Slope of the initial increase in fluorescence obtained during incubation with 0.001 mg/ml Trypsin” value is recorded as 2.22. Further, the “Slope of the initial increase in fluorescence obtained during incubation with 0.001 mg/ml Chymotrypsin” value in the data set with Chymotrypsin is reported as 0.85.

Consider “N-dodecanoyl-Ala-Glu-Pro-Tyr-OH (Lauroyl-AEPY-OH; SMILES CCCCCCCCCCCC(=O)N[C@@H](C)C(=O)N[C@@H](CCC(=O)O)C(=O)N1CCC[C@H]1C(=O)N[C@@H](Cc1ccc(O)cc1)C(=O)O) [Example 77]”, for which the “RT” value in data set [1] is 4.17 min. Also, the “Slope of the initial increase in fluorescence obtained during incubation with 0.001 mg/ml Trypsin” value in the data set on Trypsin came out at 1.55. The “Slope of the initial increase in fluorescence obtained during incubation with 0.001 mg/ml Chymotrypsin” value in the data set with Chymotrypsin worked out at 1.56.

“N-dodecanoyl-Ala-Gly-Pro-Tyr-OH (Lauroyl-AGPY-OH; SMILES CCCCCCCCCCCC(=O)N[C@@H](C)C(=O)NCC(=O)N1CCC[C@H]1C(=O)N[C@@H](Cc1ccc(O)cc1)C(=O)O) [Example 78]”: in data set [1], the “RT” value came to 5.59 min. Moreover, in the data set with Trypsin, the “Slope of the initial increase in fluorescence obtained during incubation with 0.001 mg/ml Trypsin” value was found to be 1.87. Moreover, in the data set with Chymotrypsin, the “Slope of the initial increase in fluorescence obtained during incubation with 0.001 mg/ml Chymotrypsin” value was found to be 1.03.

In the case of “N-dodecanoyl-Ala-His-Pro-Tyr-OH (Lauroyl-AHPY-OH; SMILES CCCCCCCCCCCC(=O)N[C@@H](C)C(=O)N[C@@H](Cc1c[nH]cn1)C(=O)N1CCC[C@H]1C(=O)N[C@@H](Cc1ccc(O)cc1)C(=O)O) [Example 79]”, the “RT” value in data set [1] is recorded as 5.29 min. Further, the “Slope of the initial increase in fluorescence obtained during incubation with 0.001 mg/ml Trypsin” value in the data set on Trypsin was 1.93. Further, the “Slope of the initial increase in fluorescence obtained during incubation with 0.001 mg/ml Chymotrypsin” value in the data set with Chymotrypsin turned out to be 0.51.

Take “N-dodecanoyl-Ala-Ile-Pro-Tyr-OH (Lauroyl-AIPY-OH; SMILES CCCCCCCCCCCC(=O)N[C@@H](C)C(=O)N[C@H](C(=O)N1CCC[C@H]1C(=O)N[C@@H](Cc1ccc(O)cc1)C(=O)O)[C@@H](C)CC) [Example 80]”: the “RT” value in data set [1] is 7.24 min. Further, in the data set on Trypsin, the “Slope of the initial increase in fluorescence obtained during incubation with 0.001 mg/ml Trypsin” value is 1.83. In the data set with Chymotrypsin, the “Slope of the initial increase in fluorescence obtained during incubation with 0.001 mg/ml Chymotrypsin” value is 0.10.

In the case of “N-dodecanoyl-Ala-Leu-Pro-Tyr-OH (Lauroyl-ALPY-OH; SMILES CCCCCCCCCCCC(=O)N[C@@H](C)C(=O)N[C@@H](CC(C)C)C(=O)N1CCC[C@H]1C(=O)N[C@@H](Cc1ccc(O)cc1)C(=O)O) [Example 81]”, the “RT” value in data set [1] is on record as 7.38 min. For the same substance, the “Slope of the initial increase in fluorescence obtained during incubation with 0.001 mg/ml Trypsin” value in the data set on Trypsin was 1.90. Further, the “Slope of the initial increase in fluorescence obtained during incubation with 0.001 mg/ml Chymotrypsin” value in the data set with Chymotrypsin stood at 0.40.

As to “N-dodecanoyl-Ala-Lys-Pro-Tyr-OH (Lauroyl-AKPY-OH; SMILES CCCCCCCCCCCC(=O)N[C@@H](C)C(=O)N[C@@H](CCCCN)C(=O)N1CCC[C@H]1C(=O)N[C@@H](Cc1ccc(O)cc1)C(=O)O) [Example 82]”, the “RT” value in data set [1] is 5.07 min. The “Slope of the initial increase in fluorescence obtained during incubation with 0.001 mg/ml Trypsin” value in the data set on Trypsin is on record as 1.50. In addition, the “Slope of the initial increase in fluorescence obtained during incubation with 0.001 mg/ml Chymotrypsin” value with Chymotrypsin amounted to 0.24.

“N-dodecanoyl-Ala-Met-Pro-Tyr-OH (Lauroyl-AMPY-OH; SMILES CCCCCCCCCCCC(=O)N[C@@H](C)C(=O)N[C@@H](CCSC)C(=O)N1CCC[C@H]1C(=O)N[C@@H](Cc1ccc(O)cc1)C(=O)O) [Example 83]”: in data set [1], the “RT” value stood at 6.88 min. In addition, in the data set on Trypsin, the “Slope of the initial increase in fluorescence obtained during incubation with 0.001 mg/ml Trypsin” value came out at 1.64. In the data set with Chymotrypsin, the “Slope of the initial increase in fluorescence obtained during incubation with 0.001 mg/ml Chymotrypsin” value turned out to be 0.32.

With “N-dodecanoyl-Ala-Phe-Pro-Tyr-OH (Lauroyl-AFPY-OH; SMILES CCCCCCCCCCCC(=O)N[C@@H](C)C(=O)N[C@@H](Cc1ccccc1)C(=O)N1CCC[C@H]1C(=O)N[C@@H](Cc1ccc(O)cc1)C(=O)O) [Example 84]”, the “RT” value in data set [1] amounted to 7.77 min. Further, the “Slope of the initial increase in fluorescence obtained during incubation with 0.001 mg/ml Trypsin” value in the data set with Trypsin is recorded as 1.43. In the data set with Chymotrypsin, the “Slope of the initial increase in fluorescence obtained during incubation with 0.001 mg/ml Chymotrypsin” value was 0.14.

Consider “N-dodecanoyl-Ala-Pro-Pro-Tyr-OH (Lauroyl-APPY-OH; SMILES CCCCCCCCCCCC(=O)N[C@@H](C)C(=O)N1CCC[C@H]1C(=O)N1CCC[C@H]1C(=O)N[C@@H](Cc1ccc(O)cc1)C(=O)O) [Example 85]”, for which, in data set [1], the “RT” value came out at 6.1 min. In addition, the “Slope of the initial increase in fluorescence obtained during incubation with 0.001 mg/ml Trypsin” value with Trypsin was 1.92. Further, the “Slope of the initial increase in fluorescence obtained during incubation with 0.001 mg/ml Chymotrypsin” value in the data set on Chymotrypsin is listed as 1.81.

Regarding “N-dodecanoyl-Ala-Ser-Pro-Tyr-OH (Lauroyl-ASPY-OH; SMILES CCCCCCCCCCCC(=O)N[C@@H](C)C(=O)N[C@@H](CO)C(=O)N1CCC[C@H]1C(=O)N[C@@H](Cc1ccc(O)cc1)C(=O)O) [Example 86]”, the “RT” value in data set [1] came out at 5.64 min. For the same substance, the “Slope of the initial increase in fluorescence obtained during incubation with 0.001 mg/ml Trypsin” value in the data set on Trypsin was found to be 1.89. In addition, the “Slope of the initial increase in fluorescence obtained during incubation with 0.001 mg/ml Chymotrypsin” value with Chymotrypsin was determined as 0.33.

Turning to “N-dodecanoyl-Ala-Thr-Pro-Tyr-OH (Lauroyl-ATPY-OH; SMILES CCCCCCCCCCCC(=O)N[C@@H](C)C(=O)N[C@H](C(=O)N1CCC[C@H]1C(=O)N[C@@H](Cc1ccc(O)cc1)C(=O)O)[C@@H](C)O) [Example 87]”, in data set [1], the “RT” value is on record as 5.76 min. Also, in the data set with Trypsin, the “Slope of the initial increase in fluorescence obtained during incubation with 0.001 mg/ml Trypsin” value is given as 1.91. Further, the “Slope of the initial increase in fluorescence obtained during incubation with 0.001 mg/ml Chymotrypsin” value with Chymotrypsin turned out to be 0.48.

Consider “N-dodecanoyl-Ala-Trp-Pro-Tyr-OH (Lauroyl-AWPY-OH; SMILES CCCCCCCCCCCC(=O)N[C@@H](C)C(=O)N[C@@H](Cc1c[nH]c2ccccc12)C(=O)N1CCC[C@H]1C(=O)N[C@@H](Cc1ccc(O)cc1)C(=O)O) [Example 88]”, for which the “RT” value in data set [1] is reported as 7.88 min. Also, in the data set with Trypsin, the “Slope of the initial increase in fluorescence obtained during incubation with 0.001 mg/ml Trypsin” value is on record as 0.80. The “Slope of the initial increase in fluorescence obtained during incubation with 0.001 mg/ml Chymotrypsin” value in the data set with Chymotrypsin is recorded as 0.11.

On to “N-dodecanoyl-Ala-Tyr-Pro-Tyr-OH (Lauroyl-AYPY-OH; SMILES CCCCCCCCCCCC(=O)N[C@@H](C)C(=O)N[C@@H](Cc1ccc(O)cc1)C(=O)N1CCC[C@H]1C(=O)N[C@@H](Cc1ccc(O)cc1)C(=O)O) [Example 89]”, for which the “RT” value in data set [1] was 6.23 min. Besides, the “Slope of the initial increase in fluorescence obtained during incubation with 0.001 mg/ml Trypsin” value with Trypsin is given as 1.86. Moreover, the “Slope of the initial increase in fluorescence obtained during incubation with 0.001 mg/ml Chymotrypsin” value with Chymotrypsin is recorded as 0.80.
